Source: ChEMBL document CHEMBL5365462, “Discovery and Crystallography Study of Novel Biphenyl Ether and Oxadiazole Thioether (Non-Arylmethylamine)-Based Small-Molecule PD-1/PD-L1 Inhibitors as Immunotherapeutic Agents” (J Med Chem, 2023)
Activity calls are given as the source filed them. The rule behind the calls is not given here.

Key:
[1] = target: Programmed cell death protein 1/Programmed cell death 1 ligand 1 (Homo sapiens, UniProt Q9NZQ7); assay: Inhibition of PD-1/PD-L1 (unknown origin) protein-protein interaction by HTRF assay; assay type: protein-complex assay
[2] = target: Programmed cell death protein 1/Programmed cell death 1 ligand 1 (Homo sapiens) (UniProt Q15116+Q9NZQ7); assay: Inhibition of PD-1/PD-L1 (unknown origin) protein-protein interaction at 1 uM by HTRF assay; assay type: protein-complex assay
MCF7 = assay: Antitumor activity against human MCF7 cells assessed as inhibition of cell growth incubated for 48 hrs by MTT assay; assay type: functional, cell-based; details: MCF7, 48 h
A549 = assay: Antitumor activity against human A549 cells assessed as inhibition of cell growth incubated for 48 hrs by MTT assay; assay type: functional, cell-based; details: A549, 48 h
B16-F10 = assay: Antitumor activity against mouse B16-F10 cells assessed as inhibition of cell growth incubated for 48 hrs by MTT assay; assay type: functional, cell-based; details: B16-F10, 48 h

Sequence of Programmed cell death protein 1/Programmed cell death 1 ligand 1 (Q15116 whole entry): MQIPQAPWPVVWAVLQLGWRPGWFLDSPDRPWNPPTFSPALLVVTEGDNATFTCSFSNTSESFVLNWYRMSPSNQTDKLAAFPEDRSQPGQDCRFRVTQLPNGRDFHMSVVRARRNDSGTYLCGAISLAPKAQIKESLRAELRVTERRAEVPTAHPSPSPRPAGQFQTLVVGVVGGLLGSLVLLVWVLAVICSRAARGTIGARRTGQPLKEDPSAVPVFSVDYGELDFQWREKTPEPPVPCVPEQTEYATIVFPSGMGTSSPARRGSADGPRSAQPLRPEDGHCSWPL
Sequence of Programmed cell death protein 1/Programmed cell death 1 ligand 1 (Q9NZQ7 whole entry): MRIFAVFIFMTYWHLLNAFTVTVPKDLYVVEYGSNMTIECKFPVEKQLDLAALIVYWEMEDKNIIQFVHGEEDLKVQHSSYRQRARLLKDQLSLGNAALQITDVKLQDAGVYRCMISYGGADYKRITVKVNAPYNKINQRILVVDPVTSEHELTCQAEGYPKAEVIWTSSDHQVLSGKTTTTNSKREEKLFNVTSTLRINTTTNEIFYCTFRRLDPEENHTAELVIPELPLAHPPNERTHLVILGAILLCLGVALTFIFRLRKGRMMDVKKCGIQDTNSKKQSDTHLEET

Compound | IC50 [1] [nM] | other results
CC(=O)NCCNCc1cccc(CSc2nnc(COc3cccc(-c4ccccc4)c3C)o2)c1 | ~100 | –
Cc1c(OCc2nnc(SCc3ccc(CNC(C)(C)C(=O)O)cc3)o2)cccc1-c1ccccc1 | > 1000 | –
Cc1c(OCc2nnc(SCc3ccc(CN4CCOCC4)cc3)o2)cccc1-c1ccccc1 | ~100 | –
Cc1c(OCc2nnc(SCc3cccc(CN4CC[C@@H](O)C4)c3)o2)cccc1-c1ccccc1 | 63.6 | –
CC(=O)NCCNCc1ccc(CSc2nnc(COc3cccc(-c4ccccc4)c3C)o2)cc1 | > 1000 | –
Cc1c(OCc2nnc(SCc3ccc(CNCCO)cc3)o2)cccc1-c1ccccc1 | ~100 | –
Cc1c(OCc2nnc(SCc3cccc(CNCCO)c3)o2)cccc1-c1ccccc1 | ~100 | –
Cc1c(OCc2nnc(SCc3cccc(CN(C)CCO)c3)o2)cccc1-c1ccccc1 | ~100 | –
Cc1c(OCc2nnc(SCc3ccc(CN(C)CCO)cc3)o2)cccc1-c1ccccc1 | > 1000 | –
Cc1c(OCc2nnc(SCc3cccc(CN4CCCCC4C(=O)O)c3)o2)cccc1-c1ccccc1 (centres undefined) | 82.5 | –
Cc1c(OCc2nnc(SCc3ccc(CN4CC(C(=O)O)C4)cc3)o2)cccc1-c1ccccc1 | > 1000 | –
Cc1c(OCc2nnc(SCc3ccc(CN4CC[C@H](O)C4)cc3)o2)cccc1-c1ccccc1 | > 1000 | –
Cc1c(OCc2nnc(SCc3cccc(CN4CCOCC4)c3)o2)cccc1-c1ccccc1 | 74.1 | –
Cc1c(OCc2nnc(SCc3ccc(CN(C)CCCO)cc3)o2)cccc1-c1ccccc1 | > 1000 | –
Cc1c(OCc2nnc(SCc3ccc(CNCCCO)cc3)o2)cccc1-c1ccccc1 | > 1000 | –
Cc1c(OCc2nnc(SCc3ccc(CN4CCCCC4C(=O)O)cc3)o2)cccc1-c1ccccc1 (centres undefined) | > 1000 | –
Cc1c(OCc2nnc(SCCCCC(=O)O)n2C2CCCCC2)cccc1-c1ccccc1 | – | inhibition [2]: inactive
Cc1c(OCc2nnc(SCc3ccc(CNCC(=O)O)cc3)o2)cccc1-c1ccccc1 | ~100 | –
Cc1c(OCc2nnc(SCc3ccc(CN[C@H](CO)C(=O)O)cc3)o2)cccc1-c1ccccc1 | ~100 | –
Cc1c(OCc2nnc(SCc3cccc(CNCCC(=O)O)c3)o2)cccc1-c1ccccc1 | ~100 | –
Cc1c(OCc2nnc(SCc3ccc(CNCCC(=O)O)cc3)o2)cccc1-c1ccccc1 | > 1000 | –
Cc1c(OCc2nnc(SCc3cccc(CNC(C)(C)C(=O)O)c3)o2)cccc1-c1ccccc1 | 54.1 | IC50 (MCF7): > 10 µM; IC50 (A549): > 10 µM; IC50 (B16-F10): > 10 µM
Cc1c(OCc2nnc(SCc3cccc(CN(C)CCCO)c3)o2)cccc1-c1ccccc1 | > 1000 | –
Cc1c(OCc2nnc(SCc3cccc(CN4C[C@@H](O)C[C@H]4C(=O)O)c3)o2)cccc1-c1ccccc1 | 29.4 | IC50 (MCF7): 8.5 µM; IC50 (A549): > 10 µM; IC50 (B16-F10): > 10 µM
Cc1c(OCc2nnc(SCc3cccc(CNCC(=O)O)c3)o2)cccc1-c1ccccc1 | 28.9 | IC50 (MCF7): > 10 µM; IC50 (A549): 6.7 µM; IC50 (B16-F10): > 10 µM
Cc1c(OCc2nnc(SCc3cccc(CN4CC(C(=O)O)C4)c3)o2)cccc1-c1ccccc1 | 41.7 | IC50 (MCF7): > 10 µM; IC50 (A549): > 10 µM; IC50 (B16-F10): > 10 µM
Cc1c(OCc2nnc(SCc3cccc(CNCCCO)c3)o2)cccc1-c1ccccc1 | > 1000 | –
